Patent publication US20160017048A1, “TARGETING CD138 IN CANCER” (priority 2013, published 2016)

Legend:
iC9 suicide gene [1] = assay: in vitro elimination of transduced T cells by AP1903 activation of iC9; format: cell-based; details: within 24 hrs of in vitro exposure to AP1903 (20-50 nM)
Protocol: A stable producer line with a titer >10^6 per mL may be developed. The T-cell transduction efficiency may range from 30% to 40% in hypoxia (FIG. 3). Redirected T cells can eliminate CD138+ targets in coculture experiments in hypoxia and can be rapidly eliminated (>90% of transduced cells) within 24 hrs of in vitro exposure to AP1903 (20-50 nM), the small molecule dimerizer that activates the iC9 suicide gene.

iC9 suicide gene [2] = assay: in vivo elimination of hCAR.CD138 T cells by AP1903 in patients; parameters: species or system human; details: within 3 hours of AP1903 administration
From the text: Persistence and expansion of transferred T cells are estimated using immunophenotype and real-time quantitative PCR assay (Q-PCR) in DNA extracted from PB collected at different time points after T-cell infusions. BM samples are collected at week 6 as part of the clinical evaluation of these patients. Plasma samples are collected and snap frozen at intervals to detect IL-2, IL6, IFNγ and TNFα released by T cells in vivo. One can also seek clinical evidence of antitumor activity by monitoring paraprotein levels and PC BM infiltration at 6, 12 and 24 weeks, for example. Patients are closely monitored for the occurrence of toxicity according to NCI criteria. In the case of grade III-IV toxicity, patients are treated with AP1903 to activate the iC9 gene as previously reported. The iC9 effects are quantified by measuring the loss of CAR+ circulating cells and by changes in the iC9 transgene by QPCR.
The molecular signal of the CAR (which is hypoxia independent) is detected both in PB and BM samples by week 6, even though there may be higher signal in the BM because of the accumulation of CAR T cells. The expression of the CAR by flow cytometry in T cells (which is hypoxia dependent, as it detects protein synthesis) is anticipated to be much higher in BM as compared to PB because MM BM is hypoxic. […]

`CC[C@H](C(=O)N1CCCC[C@H]1C(=O)O[C@H](CCc1ccc(OC)c(OC)c1)c1cccc(OCC(=O)NCCNC(=O)COc2cccc([C@@H](CCc3ccc(OC)c(OC)c3)OC(=O)[C@@H]3CCCCN3C(=O)[C@@H](CC)c3cc(OC)c(OC)c(OC)c3)c2)c1)c1cc(OC)c(OC)c(OC)c1` [AP1903] was tested, and the transduced cells eliminated (iC9 suicide gene [1]) was > 90% and the hCAR.CD138T eliminated (iC9 suicide gene [2]) was > 90%.
